Measured values reported in ChEMBL document CHEMBL3124761, “Synthesis and biological evaluation of N,N'-squaramides with high in vivo efficacy and low toxicity: toward a low-cost drug against Chagas disease” (J Med Chem, 2014).
Calls of active or inactive are those of the source. The calls are words filed in the database; no cut-off is given here.

Legend:
[1] = tested on: Vero; assay: Cytotoxicity against African green monkey Vero cells assessed as cell viability after 72 hrs by propidium iodide/fluorescein diacetate staining-based flow cytometric analysis; settings: Chlorocebus sabaeus
[2] = Selectivity index, ratio of IC50 for African green monkey Vero cells to IC50 for amastigote stage of Trypanosoma cruzi IRHOD/CO/2008/SN3 infected in African green monkey Vero cells; format: toxicity, cell-based; settings: read-out: Ratio IC50
[3] = tested on: Trypanosoma cruzi; assay: Antitrypanosomal activity against amastigote stage of Trypanosoma cruzi IRHOD/CO/2008/SN3 infected in African green monkey Vero cells assessed as parasite growth inhibition after 72 hrs by Giemsa staining-based microscopic analysis; format: functional, organism-based; settings: IRHOD/CO/2008/SN3, Vero
[4] = tested on: Trypanosoma cruzi; assay: Antitrypanosomal activity against epimastigote stage of Trypanosoma cruzi IRHOD/CO/2008/SN3 assessed as parasite growth inhibition after 72 hrs by Neubauer hemocytometric chamber analysis; format: functional, organism-based; settings: IRHOD/CO/2008/SN3, 72 h
[5] = Selectivity index, ratio of IC50 for African green monkey Vero cells to IC50 for epimastigote stage of Trypanosoma cruzi IRHOD/CO/2008/SN3; format: toxicity, cell-based; settings: read-out: Ratio IC50
[6] = tested on: Mus musculus; assay: Toxicity in BALB/c albino mouse infected with blood trypomastigote stage of Trypanosoma cruzi assessed as change in urea level in serum at 25 mg/kg, ip administered on day 7 to 12 post-infection measured after day 120 relative to control; format: organism-based; parameters: dose 25 mg/kg, route intraperitoneal; settings: in vivo
[7] = tested on: Mus musculus; assay: Toxicity in BALB/c albino mouse infected with blood trypomastigote stage of Trypanosoma cruzi assessed as increase in uric acid level in serum at 25 mg/kg, ip administered on day 7 to 12 post-infection measured after day 120 relative to control; format: organism-based; parameters: dose 25 mg/kg, route intraperitoneal; settings: in vivo
[8] = tested on: Trypanosoma cruzi; assay: Antitrypanosomal activity against epimastigote stage of Trypanosoma cruzi IRHOD/CO/2008/SN3 assessed as appearance of enormous reservosomes at IC25 after 72 hrs by TEM analysis; format: functional, organism-based
[9] = tested on: Trypanosoma cruzi; assay: Antitrypanosomal activity against epimastigote stage of Trypanosoma cruzi IRHOD/CO/2008/SN3 assessed as change in excreted pyruvate level at IC25 after 96 hrs by 1H NMR analysis relative to control; format: functional
[10] = tested on: Trypanosoma cruzi; assay: Antitrypanosomal activity against epimastigote stage of Trypanosoma cruzi IRHOD/CO/2008/SN3 assessed as appearance of swollen structure filled with empty vacuoles at IC25 after 72 hrs by TEM analysis; format: functional, organism-based
[11] = tested on: Mus musculus; assay: Toxicity in BALB/c albino mouse infected with blood trypomastigote stage of Trypanosoma cruzi assessed as change in alkaline phosphatase level in serum at 25 mg/kg, ip administered on day 7 to 12 post-infection measured after day 120 relative to control; format: organism-based; parameters: dose 25 mg/kg, route intraperitoneal; settings: in vivo
[12] = tested on: Trypanosoma cruzi; assay: Trypanocidal activity against metacyclic trypomastigote stage of Trypanosoma cruzi infected in BALB/c albino mouse acute chagas disease model assessed as reduction of parasite burden at 25 mg/kg, ip administered on day 7 to 12 post-infection measured on day 14 by ELISA; format: functional, organism-based; parameters: dose 25 mg/kg
[13] = tested on: Trypanosoma cruzi; assay: Antitrypanosomal activity against epimastigote stage of Trypanosoma cruzi IRHOD/CO/2008/SN3 assessed as change in excreted lactate level at IC25 after 96 hrs by 1H NMR analysis relative to control; format: functional
[14] = tested on: Trypanosoma cruzi; assay: (§1) Antitrypanosomal activity against amastigote stage of Trypanosoma cruzi IRHOD/CO/2008/SN3 infected in African green monkey Vero cells assessed as reduction of amastigote number per cell at IC25 preincubated for 12 hrs followed by compound washout measured every 48 hrs for 10 days by Neubauer hemocytometric chamber analysis relative to control; format: functional
[15] = tested on: Trypanosoma cruzi; assay: Antitrypanosomal activity against epimastigote stage of Trypanosoma cruzi IRHOD/CO/2008/SN3 assessed as change in excreted acetate level at IC25 after 96 hrs by 1H NMR analysis relative to control; format: functional
[16] = tested on: Mus musculus; assay: Toxicity in BALB/c albino mouse infected with blood trypomastigote stage of Trypanosoma cruzi assessed as change in ALT/GPT level in serum at 25 mg/kg, ip administered on day 7 to 12 post-infection measured after day 120 relative to control; format: organism-based; parameters: dose 25 mg/kg, route intraperitoneal; settings: in vivo
[17] = tested on: Trypanosoma cruzi; assay: as §1, with “trypomastigote” for “amastigote”, “IRHOD/CO/2008/SN3” for “IRHOD/CO/2008/SN3 infected in African green monkey Vero cells”, “mililiter of culture medium” for “cell”; format: functional
[18] = tested on: Trypanosoma cruzi; assay: Antitrypanosomal activity against epimastigote stage of Trypanosoma cruzi IRHOD/CO/2008/SN3 assessed as mortality at IC25 after 72 hrs by TEM analysis; format: functional, organism-based
[19] = tested on: Trypanosoma cruzi; assay: Antitrypanosomal activity against epimastigote stage of Trypanosoma cruzi IRHOD/CO/2008/SN3 assessed as formation of electron-dense vacuoles at IC25 after 72 hrs by TEM analysis; format: functional, organism-based
[20] = tested on: Mus musculus; assay: Toxicity in BALB/c albino mouse infected with blood trypomastigote stage of Trypanosoma cruzi assessed as increase in AST/GOT level in serum at 25 mg/kg, ip administered on day 7 to 12 post-infection measured after day 120 relative to control; format: organism-based; parameters: dose 25 mg/kg, route intraperitoneal; settings: in vivo
[21] = tested on: Mus musculus; assay: Toxicity in BALB/c albino mouse infected with blood trypomastigote stage of Trypanosoma cruzi assessed as change in LDH level in serum at 25 mg/kg, ip administered on day 7 to 12 post-infection measured after day 120 relative to control; format: organism-based; parameters: dose 25 mg/kg, route intraperitoneal; settings: in vivo
[22] = tested on: Trypanosoma cruzi; assay: as §1, with “decrease in infection rate” for “reduction of amastigote number per cell”; format: functional
[23] = tested on: Trypanosoma cruzi; assay: Trypanocidal activity against metacyclic trypomastigote stage of Trypanosoma cruzi infected in BALB/c albino mouse acute chagas disease model assessed as inhibition of parasitemia at 25 mg/kg, ip administered on day 7 to 12 post-infection measured every 2 days until day 40 […] relative to control; format: functional; settings: route intraperitoneal
[24] = tested on: Trypanosoma cruzi; assay: Antitrypanosomal activity against epimastigote stage of Trypanosoma cruzi IRHOD/CO/2008/SN3 assessed as change in excreted alanine level at IC25 after 96 hrs by 1H NMR analysis relative to control; format: functional
[25] = tested on: Mus musculus; assay: Toxicity in BALB/c albino mouse infected with blood trypomastigote stage of Trypanosoma cruzi assessed as increase in creatinephophokinase-MB level in serum at 25 mg/kg, ip administered on day 7 to 12 post-infection measured after day 120 relative to control; format: organism-based; parameters: dose 25 mg/kg, route intraperitoneal; settings: in vivo
[26] = tested on: Mus musculus; assay: Toxicity in BALB/c albino mouse infected with blood trypomastigote stage of Trypanosoma cruzi assessed as change in total bilirubin level in serum at 25 mg/kg, ip administered on day 7 to 12 post-infection measured after day 120 relative to control; format: organism-based; parameters: dose 25 mg/kg, route intraperitoneal; settings: in vivo
[27] = tested on: Trypanosoma cruzi; assay: Antitrypanosomal activity against epimastigote stage of Trypanosoma cruzi IRHOD/CO/2008/SN3 assessed as change in excreted succinate level at IC25 after 96 hrs by 1H NMR analysis relative to control; format: functional
[28] = tested on: Mus musculus; assay: Toxicity in BALB/c albino mouse assessed as mortality at 25 mg/kg, ip administered for 5 days; format: organism-based; parameters: dose 25 mg/kg, route intraperitoneal; settings: in vivo, 120 h
[29] = tested on: Trypanosoma cruzi; assay: Antitrypanosomal activity against epimastigote stage of Trypanosoma cruzi IRHOD/CO/2008/SN3 assessed as partially scalloped parasite outer membrane at IC25 after 72 hrs by TEM analysis; format: functional, organism-based
[30] = tested on: Mus musculus; assay: Toxicity in BALB/c albino mouse infected with blood trypomastigote stage of Trypanosoma cruzi assessed as change in creatinephophokinase-MB level in serum at 25 mg/kg, ip administered on day 7 to 12 post-infection measured after day 120 relative to control; format: organism-based; parameters: dose 25 mg/kg, route intraperitoneal; settings: in vivo
[31] = tested on: Trypanosoma cruzi; assay: Antitrypanosomal activity against epimastigote stage of Trypanosoma cruzi IRHOD/CO/2008/SN3 assessed as disappearance of microtubular structure at IC25 after 72 hrs by TEM analysis; format: functional, organism-based
[32] = tested on: Trypanosoma cruzi; assay: Antitrypanosomal activity against epimastigote stage of Trypanosoma cruzi IRHOD/CO/2008/SN3 assessed as mitochondrial swelling with rupture of membrane at IC25 after 72 hrs by TEM analysis; format: functional, organism-based
[33] = tested on: Mus musculus; assay: Toxicity in BALB/c albino mouse infected with blood trypomastigote stage of Trypanosoma cruzi assessed as increase in LDH level in serum at 25 mg/kg, ip administered on day 7 to 12 post-infection measured after day 120 relative to control; format: organism-based; parameters: dose 25 mg/kg, route intraperitoneal; settings: in vivo
[34] = tested on: Mus musculus; assay: Toxicity in BALB/c albino mouse infected with blood trypomastigote stage of Trypanosoma cruzi assessed as increase in total bilirubin level in serum at 25 mg/kg, ip administered on day 7 to 12 post-infection measured after day 120 relative to control; format: organism-based; parameters: dose 25 mg/kg, route intraperitoneal; settings: in vivo
[35] = tested on: Trypanosoma cruzi; assay: Antitrypanosomal activity against epimastigote stage of Trypanosoma cruzi IRHOD/CO/2008/SN3 assessed as discontinuation of parasite outer membrane at IC25 after 72 hrs by TEM analysis; format: functional, organism-based

Compound: CCCCNc1c(NCC[N+](C)(C)C)c(=O)c1=O
- IC50 [1]: 57.6 µM
- selectivity ratio [2]: 1.5
- IC50 [3]: 38.5 µM
- IC50 [4]: 107 µM
- selectivity ratio [5]: 0.5

Compound: O=c1c(O)c(Nc2ccccc2O)c1=O
- IC50 [1]: 228 µM
- selectivity ratio [2]: 5.2
- IC50 [3]: 44 µM
- IC50 [4]: 50.8 µM
- selectivity ratio [5]: 4.5

Compound: CN(CCCNc1c(NCCC[N+](C)(C)C)c(=O)c1=O)CCCNc1c(NCCC[N+](C)(C)C)c(=O)c1=O.[I-].[I-]
- Activity [6]: < 10%
- Activity [7]: 30%
- Activity [8]: Active
- Activity [9]: 37.4%
- Activity [10]: Active
- Activity [11]: < 10%
- Activity [12]: Active
- IC50 [1]: 301 µM
- Activity [13]: -20.6%
- inhibition (INH) [14]: 30%
- Activity [15]: -12%
- Activity [16]: < 10%
- selectivity ratio [2]: 17.5
- inhibition (INH) [17]: 49%
- Activity [18]: Active
- Activity [19]: Active
- IC50 [3]: 17.1 µM
- IC50 [4]: 18.5 µM
- Activity [20]: 40%
- Activity [21]: < 10%
- inhibition (INH) [22]: 30%
- inhibition in vivo at 25 mg/kg [23]: 37%
- Activity [24]: -13.3%
- selectivity ratio [5]: 16.2
- Activity [25]: 30%
- Activity [26]: < 10%
- Activity [27]: -21.2%
- Activity [28]: Non-toxic

Compound: C[N+](C)(C)CCNc1c(NCc2cccc(CNc3c(NCC[N+](C)(C)C)c(=O)c3=O)c2)c(=O)c1=O
- IC50 [1]: 73.1 µM
- selectivity ratio [2]: 1.7
- IC50 [3]: 43.9 µM
- IC50 [4]: 119 µM
- selectivity ratio [5]: 0.6

Compound: CN(C)c1ccc(Nc2c(O)c(=O)c2=O)cc1
- IC50 [1]: 12.9 µM
- selectivity ratio [2]: 1.3
- IC50 [3]: 10.1 µM
- IC50 [4]: 15.9 µM
- selectivity ratio [5]: 0.8

Compound: CCOC(=O)c1ccc(Nc2c(O)c(=O)c2=O)cc1
- IC50 [1]: 21.5 µM
- selectivity ratio [2]: 1.2
- IC50 [3]: 18.4 µM
- IC50 [4]: 26.3 µM
- selectivity ratio [5]: 0.8

Compound: CCCCNc1c(NCCN(C)C)c(=O)c1=O
- Activity [6]: < 10%
- Activity [29]: Active
- Activity [7]: 30%
- Activity [9]: -11.1%
- Activity [11]: < 10%
- Activity [12]: Active
- IC50 [1]: 260 µM
- Activity [13]: -23.9%
- inhibition (INH) [14]: 35%
- Activity [15]: -18.6%
- Activity [16]: < 10%
- selectivity ratio [2]: 28
- Activity [30]: < 10%
- Activity [31]: Active
- inhibition (INH) [17]: 18%
- Activity [19]: Active
- IC50 [3]: 9.3 µM
- IC50 [4]: 10.5 µM
- Activity [20]: 40%
- inhibition (INH) [22]: 35%
- inhibition in vivo at 25 mg/kg [23]: 31%
- Activity [24]: -11.1%
- Activity [32]: Active
- Activity [33]: 40%
- selectivity ratio [5]: 24.8
- Activity [34]: 40%
- Activity [35]: Active
- Activity [27]: -28.3%
- Activity [28]: Non-toxic

Compound: CCCCCCCCCCCCCCCCNc1c(NCCN(C)C)c(=O)c1=O
- IC50 [1]: 90.1 µM
- selectivity ratio [2]: 3.4
- IC50 [3]: 22.4 µM
- IC50 [4]: 49.8 µM
- selectivity ratio [5]: 1.8
